Measured values as given in patent US10035819B2, “PPAR agonists and methods of use thereof” (The Salk Institute for Biological Studies, priority 2014, dated 2018).
In brackets after ≈: the same amount, converted by molar mass. Like-named read-outs stand apart in the source and are kept apart here. Values belong to the compound of their own block, whether it stands above or below them.

Key:
AKO mice = test: GW treatment in mouse model of ALD (AKO mice), fatty acid analysis by GC/MS and gene expression; assay type: in vivo
Source text: ALD is a rare genetic disorder caused by defects in peroxisomal oxidation of very long-chain fatty acids (VLCFAs), resulting in systemic accumulation of VLCFAs, which causes tissue defects mainly in the central nervous system and the adrenal glands. The majority of VLCFAs in the body are endogenously synthesized from long-chain fatty acids (LCFAs). Therefore, one potential way to prevent VLCFA accumulation in ALD is by inducing mitochondrial LCFA oxidation to reduce the availability of LCFAs for VLCFA biosynthesis. In order to test this, a previously described mouse model of ALD was used, in which the X-linked adrenoleukodystrophy gene abcdl was systemically ablated and the knockout (AKO) mice faithfully recapitulated the abnormal VLCFA accumulation phenotype seen in ALD patients.
3-month-old AKO mice were treated with or without GW and their tissues collected for free FA analysis using GC/MS.

[1] = Solubility (kinetic, thermodynamic); assay type: physicochemical
[2] = assay type: in vitro ADME; conditions: MLM
% Parent remained in HLM = assay type: in vitro ADME
[3] = Pharmacokinetics in male CD-1 mice (i.v. and p.o.); assay type: in vivo; conditions: CD-1 mice; for Vd: CD-1, mouse, 3 mg/kg
Method: The oral bioavailability and serum half lives of PPARδ ligands were compared in mice. The pharmacokinetics of PPARδ ligands delivered orally (10 mg/kg p.o.) and intravenously (3 mg·kg i.v.) were determined by mass spectrometry.
In this example, the PK profile of several PPARδ agonists disclosed herein in male CD-1 mice or Wistar rats was determined. Similar methods can be used to analyze other compounds provided herein.
(quantity sufficient ie made up to a final volume of 100% with water). All compounds were separately administered to CD-1 mice at 3 mg/kg iv or 10 mg/kg po.
The concentration of the compound in plasma was determined, as illustrated in FIGS. 9A-9E.

Human PPARδ LBD = target: T1, Human PPARδ LBD (Homo sapiens, UniProt Q03181); test: PPARδ activity screen (GAL4-PPARδ LBD luciferase transactivation in CV-1 cells); assay type: cell-based
T1 construct: (PPARδ amino acid 128 to C-terminus); expressed in transfected cells; host or cells: CV-1 cells
T1 sequence (Q03181 128-441 limits assumed): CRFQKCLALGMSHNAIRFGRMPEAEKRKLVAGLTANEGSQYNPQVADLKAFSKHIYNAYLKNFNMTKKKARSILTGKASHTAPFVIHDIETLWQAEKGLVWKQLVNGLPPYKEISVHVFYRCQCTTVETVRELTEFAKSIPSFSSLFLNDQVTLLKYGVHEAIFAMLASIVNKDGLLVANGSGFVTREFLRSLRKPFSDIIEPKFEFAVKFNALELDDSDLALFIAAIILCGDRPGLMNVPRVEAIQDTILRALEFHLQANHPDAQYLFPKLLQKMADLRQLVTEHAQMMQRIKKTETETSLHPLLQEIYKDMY
Method: Cell Culture and Transfection: CV-1 cells were grown in DMEM+10% charcoal stripped FCS. Cells were seeded into 384-well plates the day before transfection to give a confluency of 50-80% at transfection. A total of […] containing 0.64 micrograms pCMX-PPARDelta LBD, 0.1 micrograms pCMXβGal, 0.08 micrograms pGLMH2004 reporter and 0.02 micrograms pCMX empty vector was transfected per well using FuGene transfection reagent according to the manufacturer's instructions (Roche).
Plasmids: Human PPARδ was used to PCR amplify the PPARδ LBD. […] Ensuing fusions were verified by sequencing.
Compounds: All compounds were dissolved in DMSO and diluted 1:1000 upon addition to the cells. Compounds were tested in quadruple in concentrations ranging from 0.001 to 100 μM. […] Each compound was tested in at least two separate experiments.
Luciferase assay: Medium including test compound was aspirated and washed with PBS. 50 μl PBS including 1 mM Mg++ and Ca++ were then added to each well. The luciferase assay was performed using the LucLite kit according to the manufacturer's instructions (Packard Instruments). Light emission was quantified by counting on a Perkin Elmer Envision reader. […] Beta-galactosidase assays were performed in the microwell plates using a kit from Promega and read in a Perkin Elmer Envision reader. The beta-galactosidase data were used to normalize (transfection efficiency, cell growth etc.) the luciferase data.
Statistical Methods: The activity of a compound is calculated as fold induction compared to an untreated sample. […] EC50 values were calculated via non-linear regression using GraphPad PRISM (GraphPad Software, San Diego, Calif.).

PPARδ = target: T2, PPARδ (Homo sapiens, UniProt Q03181); test: Nuclear Hormone Receptor (NHR) protein interaction assay (PathHunter), agonist format; assay type: cell-based
T2 construct: expressed in transfected cells; host or cells: PathHunter NHR cell lines
T2 sequence (Q03181 1-441): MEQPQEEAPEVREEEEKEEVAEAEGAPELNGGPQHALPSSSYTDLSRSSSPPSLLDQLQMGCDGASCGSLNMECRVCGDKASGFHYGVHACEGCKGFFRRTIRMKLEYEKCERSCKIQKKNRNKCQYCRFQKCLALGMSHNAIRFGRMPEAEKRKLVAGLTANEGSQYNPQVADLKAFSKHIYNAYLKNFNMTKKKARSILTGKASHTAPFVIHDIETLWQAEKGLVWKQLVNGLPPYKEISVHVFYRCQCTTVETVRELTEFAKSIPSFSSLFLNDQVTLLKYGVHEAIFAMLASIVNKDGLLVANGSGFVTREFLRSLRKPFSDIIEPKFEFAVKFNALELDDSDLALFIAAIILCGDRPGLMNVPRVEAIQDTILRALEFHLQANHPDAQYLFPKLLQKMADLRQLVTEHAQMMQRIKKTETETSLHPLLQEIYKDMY
Method: • Cell Handling: PathHunter NHR cell lines were expanded from freezer stocks according to standard procedures. Cells were seeded in a total volume of 20 μL into white walled, 384-well microplates and incubated at 37° C. for the appropriate time prior to testing. Assay media contained charcoal-dextran filtered serum to reduce the level of hormones present. • Agonist Format: For agonist determination, cells were incubated with sample to induce response. Intermediate dilution of sample stocks was performed to generate 5× sample in assay buffer. 5 μL of 5× sample was added to cells and incubated at 37° C. or room temperature for 3-16 hours. Final assay vehicle concentration was 1%. • Antagonist Format: For antagonist determination, cells were pre-incubated with antagonist followed by agonist challenge at the EC80 concentration. Intermediate dilution of sample stocks was performed to generate 5× sample in assay buffer. 5 μL of 5× sample was added to cells and incubated at 37° C. or room temperature for 60 minutes. Vehicle concentration was 1%. […] Microplates were read following signal generation with a PerkinElmer Envision™ instrument for chemiluminescent signal detection. • Data Analysis: Compound activity was analyzed using CBIS data analysis suite (ChemInnovation, CA). For agonist mode assays, percentage activity was calculated using the following formula: % Activity=100%×(mean RLU of test sample−mean RLU of vehicle control)/(mean MAX control ligand−mean RLU of vehicle control).
For antagonist mode assays, percentage inhibition was calculated using the following formula: % Inhibition=100%×(1−(mean RLU of test sample−mean RLU of vehicle control)/(mean RLU of EC80 control−mean RLU of vehicle control)). Note that for select assays, the ligand response produces a decrease in receptor activity (inverse agonist with a constitutively active target). For those assays inverse agonist activity was calculated using the following formula: % Inverse Agonist Activity=100%×((mean RLU of vehicle control−mean RLU of test sample)/(mean RLU of vehicle control−mean RLU of MAX control)).

[4] = male, mouse, iv, 3 mg/Kg i.v., plasma
[5] = male, mouse, po, 10 mg/Kg p.o., plasma
[6] = EC50 nM, Table 1, CV-1 cells, GAL4-PPARδ LBD luciferase reporter, compound 24 h
[7] = PPARd, EC50 (nM) (from Salk), Table 15
[8] = Table 1, CV-1 cells, GAL4-PPARδ LBD luciferase reporter, compound 24 h, read-out: EC50
[9] = Table 15, read-out: PPARd, EC50 (nM) (from Salk)
[10] = PathHunter NHR cell line, agonist format, read-out: NHR protein interaction assay, EC50 (nM) for PPARδ

Structure (SMILES): Cc1cc(SCc2sc(-c3ccc(C(F)(F)F)cc3)nc2C)ccc1OCC(=O)O [GW]
levels of VLCFAs (C22:0, C23:0, C24:0, C26:0) in AKO brain and liver (AKO mice; 8 weeks of GW treatment, 3-month-old AKO mice): significantly reduced
liver C26:0 (AKO mice; 8 weeks of GW treatment, most GW-treated animals): cleared
most saturated LCFAs (C12:0 to C22:0) and total FAs (AKO mice; AKO liver and muscle): significantly reduced
expression of mitochondrial FA oxidation genes (Cptla and lb, Slc25a20, Acadl) (AKO mice; AKO liver and skeletal muscle): dramatically induced

solubility kinetic ([1]; kinetic from dmso stock): 6 µM (≈ 2.69 µg/mL)
solubility thermodynamic ([1]; thermodynamic from solid): 253 µM (≈ 113 µg/mL)
% Parent remained at 15 min, MLM ([2]; 15 min): 59%
% Parent remained at 60 min, MLM ([2]; 60 min): 19%
% Parent remained at 15 min, HLM (% Parent remained in HLM; 15 min): 92%
% Parent remained at 60 min, HLM (% Parent remained in HLM; 60 min): 64%
Cl ([3]; 3 mg/Kg i.v., plasma): 194.938 mL/min/kg
Kel ([3]; 3 mg/Kg i.v., plasma): 3.85 h⁻¹
F ([3]; 10 mg/Kg p.o. vs 3 mg/Kg i.v.): ~22%
Vd ([3]; male, plasma, iv, 3 mg/Kg i.v., plasma, read-out: Vss): 1.58 L/kg
Vd ([3]; male, plasma, iv, 3 mg/Kg i.v., plasma, read-out: Vz): 3.03 L/kg
AUC(0-inf) [3, 4]: 256 ng·h/mL
C0 [3, 4]: 1940 ng/mL
MRT [3, 4]: 7.2 min
half-life ([3]; male, mouse, iv, 3 mg/Kg i.v., plasma, read-out: Beta T1/2 (converted)): 10.8 min
AUC(0-inf) [3, 5]: 187 ng·h/mL
Cmax [3, 5]: 129 ng/mL
Tmax [3, 5]: 30 min
half-life ([3]; male, mouse, po, 10 mg/Kg p.o., plasma, read-out: T1/2 (converted)): 156 min
Structure (SMILES): O=C(O)CCCCCOc1ccccc1CN(C(=O)c1ccc(-c2ccco2)cc1)C1CC1 [compound 12]

Structure (SMILES): CCC(C)N(Cc1ccccc1OCCCCCC(=O)O)C(=O)c1ccc(-c2ccco2)cc1 (stereo not drawn) [compound 37]
EC50 (Human PPARδ LBD; [6]): 41 nM
EC50 (Human PPARδ LBD; [7]): 41 nM
EC50 (PPARδ): 17.5 nM

Structure (SMILES): CC(C)N(Cc1ccccc1OCCCCCC(=O)O)C(=O)c1ccc(-c2ccccc2)cc1 [compound 57]
EC50 (Human PPARδ LBD; [6]): 60 nM
EC50 (Human PPARδ LBD; [7]): 42 nM
EC50 (PPARδ): 25.9 nM

Structure (SMILES): CC(C)N(Cc1ccccc1OCCCCCC(=O)O)C(=O)c1ccc(-c2ccco2)cc1 [compound 61]
EC50 (Human PPARδ LBD; [8]): 9 nM
EC50 (Human PPARδ LBD; [9]): 9 nM
EC50 (PPARδ; [10]): 5.9 nM

Structure (SMILES): CC(C)N(Cc1ccccc1OCCCCCC(=O)O)C(=O)c1ccc(-c2ccoc2)cc1 [compound 62]
EC50 (Human PPARδ LBD; [8]): 61 nM
EC50 (Human PPARδ LBD; [9]): 61 nM
EC50 (PPARδ; [10]): 36.8 nM

Structure (SMILES): CC(C)N(Cc1ccccc1OCCCCCC(=O)O)C(=O)c1ccc(-c2cccs2)cc1 [compound 63]
EC50 (PPARδ): 8.4 nM

Structure (SMILES): CC(C)N(Cc1ccccc1OCCCCCC(=O)O)C(=O)c1ccc(-c2ccsc2)cc1 [compound 64]
EC50 (Human PPARδ LBD; [8]): 17.2 nM
EC50 (Human PPARδ LBD; [9]): 17.2 nM
EC50 (PPARδ; [10]): 8.02 nM
